Laboratory results taken from patent publication US11427558B1, “Indazoles and azaindazoles as LRRK2 inhibitors” (ESCAPE Bio, Inc., priority 2019, dated 2022).

Tests used:
[1] = molecular target: Recombinant wild type LRRK2 protein (Homo sapiens (Human), UniProt Q5S007); experiment: LRRK2 kinase activity, LanthaScreen TR-FRET assay (wild type); format: biochemical; conditions: LRRKtide 400 nM, 25 μM ATP, 60 min; read-out: LRRK2 WT IC50
Method in brief: (§1)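 Recombinant human wild-type or G2019S LRRK2 phosphorylated fluorescein-labelled LRRKtide (ERM-based) with ATP and serially diluted compound for 60 min at room temperature.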

[2] = molecular target: Recombinant G2019S-LRRK2 protein (Homo sapiens (Human), UniProt Q5S007, G2019S); experiment: LRRK2 kinase activity, LanthaScreen TR-FRET assay (G2019S); format: biochemical; conditions: LRRKtide 400 nM, 25 μM ATP, 60 min
Method in brief: as §1

Recombinant G2019S-LRRK2 protein, sequence (Q5S007 whole entry G2019S): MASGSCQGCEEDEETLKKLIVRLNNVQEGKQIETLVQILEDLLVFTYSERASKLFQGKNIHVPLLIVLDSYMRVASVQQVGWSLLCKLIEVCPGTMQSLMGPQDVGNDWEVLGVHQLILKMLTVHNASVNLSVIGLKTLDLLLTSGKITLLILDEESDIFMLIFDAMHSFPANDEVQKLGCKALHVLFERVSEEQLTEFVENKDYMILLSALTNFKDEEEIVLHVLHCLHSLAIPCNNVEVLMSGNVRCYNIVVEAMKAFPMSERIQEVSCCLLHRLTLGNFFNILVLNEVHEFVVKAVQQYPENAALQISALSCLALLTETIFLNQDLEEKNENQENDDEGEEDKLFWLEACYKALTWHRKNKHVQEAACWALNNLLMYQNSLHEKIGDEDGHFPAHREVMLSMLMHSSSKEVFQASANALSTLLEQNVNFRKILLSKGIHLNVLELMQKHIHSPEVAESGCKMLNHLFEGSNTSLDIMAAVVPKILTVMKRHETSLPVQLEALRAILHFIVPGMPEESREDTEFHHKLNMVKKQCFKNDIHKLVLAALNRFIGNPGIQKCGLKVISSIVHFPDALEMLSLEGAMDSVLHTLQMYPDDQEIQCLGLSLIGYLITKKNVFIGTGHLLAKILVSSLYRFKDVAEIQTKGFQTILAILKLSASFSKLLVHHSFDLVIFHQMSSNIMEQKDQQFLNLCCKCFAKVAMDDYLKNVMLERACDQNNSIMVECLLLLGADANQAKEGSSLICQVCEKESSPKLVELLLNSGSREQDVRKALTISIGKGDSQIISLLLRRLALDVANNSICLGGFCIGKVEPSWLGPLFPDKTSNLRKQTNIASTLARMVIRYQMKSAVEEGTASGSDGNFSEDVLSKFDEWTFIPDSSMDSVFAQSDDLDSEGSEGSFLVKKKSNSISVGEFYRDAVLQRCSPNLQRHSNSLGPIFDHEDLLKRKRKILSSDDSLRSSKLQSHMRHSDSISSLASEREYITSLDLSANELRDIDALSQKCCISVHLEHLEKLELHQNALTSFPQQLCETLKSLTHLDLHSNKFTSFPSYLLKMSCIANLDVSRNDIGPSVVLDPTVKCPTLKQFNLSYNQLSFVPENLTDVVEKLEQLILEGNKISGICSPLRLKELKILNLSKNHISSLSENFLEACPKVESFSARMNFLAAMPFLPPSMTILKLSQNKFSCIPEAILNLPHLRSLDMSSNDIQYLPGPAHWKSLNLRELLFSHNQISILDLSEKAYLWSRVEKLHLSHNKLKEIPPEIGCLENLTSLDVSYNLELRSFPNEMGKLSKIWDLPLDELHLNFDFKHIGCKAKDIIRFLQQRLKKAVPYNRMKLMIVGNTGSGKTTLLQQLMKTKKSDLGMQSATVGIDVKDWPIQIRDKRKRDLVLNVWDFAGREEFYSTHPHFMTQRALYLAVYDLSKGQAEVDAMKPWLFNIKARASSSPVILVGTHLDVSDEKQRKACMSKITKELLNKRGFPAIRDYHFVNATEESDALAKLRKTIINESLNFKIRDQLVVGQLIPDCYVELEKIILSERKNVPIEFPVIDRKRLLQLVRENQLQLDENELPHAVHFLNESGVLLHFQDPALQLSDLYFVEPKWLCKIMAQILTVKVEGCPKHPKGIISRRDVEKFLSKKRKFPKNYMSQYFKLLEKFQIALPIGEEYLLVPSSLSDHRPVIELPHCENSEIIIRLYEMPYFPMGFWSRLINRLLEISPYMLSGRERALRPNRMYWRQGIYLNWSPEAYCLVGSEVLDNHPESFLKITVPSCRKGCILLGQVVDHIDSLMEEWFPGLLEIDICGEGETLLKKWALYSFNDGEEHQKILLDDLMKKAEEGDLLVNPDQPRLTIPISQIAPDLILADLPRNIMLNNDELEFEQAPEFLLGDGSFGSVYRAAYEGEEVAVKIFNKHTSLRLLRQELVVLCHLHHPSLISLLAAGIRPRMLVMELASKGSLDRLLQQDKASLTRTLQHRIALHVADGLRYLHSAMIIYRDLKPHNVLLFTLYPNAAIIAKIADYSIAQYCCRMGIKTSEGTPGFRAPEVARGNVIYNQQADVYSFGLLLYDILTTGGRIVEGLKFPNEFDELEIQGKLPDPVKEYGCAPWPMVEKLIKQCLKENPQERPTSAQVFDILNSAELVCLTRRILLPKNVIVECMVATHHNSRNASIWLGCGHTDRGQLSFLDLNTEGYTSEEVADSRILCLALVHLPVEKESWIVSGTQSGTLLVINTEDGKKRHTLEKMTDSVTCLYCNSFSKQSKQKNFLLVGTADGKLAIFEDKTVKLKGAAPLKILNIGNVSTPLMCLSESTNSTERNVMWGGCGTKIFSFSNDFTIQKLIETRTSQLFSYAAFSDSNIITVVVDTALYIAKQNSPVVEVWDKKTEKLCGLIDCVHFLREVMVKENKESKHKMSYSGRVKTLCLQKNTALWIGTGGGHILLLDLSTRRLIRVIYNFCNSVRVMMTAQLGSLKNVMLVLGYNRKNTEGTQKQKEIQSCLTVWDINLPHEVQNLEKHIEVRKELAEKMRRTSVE
Recombinant wild type LRRK2 protein, sequence (Q5S007 whole entry): as the sequence (Q5S007 whole entry G2019S) above, with S2019G counted along it

| Compound | IC50 [1] [nM] | IC50 [2] [nM] |
| --- | --- | --- |
| Cc1c(C(=O)Nc2ccc3[nH]nc(C4CC4)c3c2)nc(Br)c(C#N)c1C [Example 330, 6-Bromo-5-cyano-N-(3-cyclopropyl-1H-indazol-5-yl)-3,4-dimethylpicolinamide] | < 100 | < 100 |
| Cc1c(Cl)c(C(=O)Nc2ccc3[nH]nc(C4CC4)c3c2)nc(Cl)c1C#N [Example 331, 3,6-Dichloro-5-cyano-N-(3-cyclopropyl-1H-indazol-5-yl)-4-methylpicolinamide] | < 100 | < 100 |
| C=Cc1nc(C(=O)Nc2ccc3[nH]nc(C4CC4)c3c2)c(C)c(C)c1C#N [Example 332, 5-Cyano-N-(3-cyclopropyl-1H-indazol-5-yl)-3,4-dimethyl-6-vinylpicolinamide] | 100 to 1000 | < 100 |
| CCc1nc(C(=O)Nc2ccc3[nH]nc(C4CC4)c3c2)c(C)c(C)c1C#N [Example 333, 5-Cyano-N-(3-cyclopropyl-1H-indazol-5-yl)-6-ethyl-3,4-dimethylpicolinamide] | 100 to 1000 | < 100 |
| Cc1c(C(=O)Nc2ccc3[nH]nc(C4CC4)c3c2)nc(C2CC2)c(C#N)c1C [Example 334, 5-Cyano-6-cyclopropyl-N-(3-cyclopropyl-1H-indazol-5-yl)-3,4-dimethylpicolinamide] | 100 to 1000 | < 100 |
| Cc1c(C#N)cnc(C(=O)Nc2ccc3[nH]nc(-c4cnn(C5CC5)c4)c3c2)c1C [Example 335, 5-Cyano-N-(3-(1-cyclopropyl-1H-pyrazol-4-yl)-1H-indazol-5-yl)-3,4-dimethylpicolinamide] | < 100 | < 100 |
